{
  "source": "paper PMC5289073",
  "about": "“Stable expression and functional characterisation of the diamondback moth ryanodine receptor G4946E variant conferring resistance to diamide insecticides” (Scientific Reports, 2015)",
  "key": {"Tuta absoluta": {"system": "Tuta absoluta", "set-up": "method as in ref 39 = [39]; Roditakis E. et al. First report of Tuta absoluta resistance to diamide insecticides . J Pest Sci. 88 , 9 – 16 ( 2015 ).", "conditions": "T. absoluta population from Sicily (Italy), up; cited from earlier work"}, "[1]": {"system": "P. xylostella RyR (thoracic microsomal membranes)", "conditions": "Philippine strain versus susceptible strain; cited from earlier work"}, "Adoxophyes honmai": {"system": "Adoxophyes honmai", "set-up": "method as in ref 40 = [40]; Uchiyama T. & Ozawa A. Rapid development of resistance to diamide insecticides in the smaller tea tortrix, Adoxophyes honmai (Lepidoptera: Tortricidae), in the tea fields of Shizuoka Prefecture, Japan", "conditions": "cited from earlier work"}, "P. xylostella G4946E RyR [2]": {"molecular_target": "T1, P. xylostella G4946E RyR (Plutella xylostella, UniProt K7W8M2, G4900E)", "test": "Calcium fluorescence (Fluo8, FLIPR Tetra), Sf9 cells stably expressing G4946E RyR (Sf9-mRyR)", "type": "cell-based", "experimental": "(§1) Figure 6 Calcium transients in Sf9 cells stably expressing either the P. xylostella WT (●) or the modified (G4946E) RyR (▲) as a function of the diamide concentration. Calcium-dye (Fluo8) fluorescence was measured after (a) flubendiamide-sulfoxide or (b) chlorantraniliprole application as a function of time. The integrated fluorescence signals were plotted against the logarithm of the effector concentration. Data fitting and EC50 calculations were performed with the SigmaPlot v13 software package.\nThe efficacy of both diamides was reduced dramatically in the Sf9-mRyR cells expressing the G4946E RyR.\n(§2) Cells were transfected as described above and subjected to selection with 300 μg ml^−1 zeocin by the dilution method, essentially as described in the manufacturer´s manual (Invitrogen). After a few successive rounds of clonal selection, zeocin-resistant cell clones were tested for functional RyR expression by calcium fluorescence measurements.\n(§3) Calcium-dye fluorescence was measured with Fluo8-loaded cells on the FLIPR Tetra instrument (Molecular Devices) in the 384 microtiter plate format. 1.5 × 10[4] cells per well were treated with variable concentrations of effector compounds in a total volume of 80 μl Tyrode´s buffer containing 0.1% DMSO (final concentration) essentially following the established protocols provided with the Fluo8 No-Wash calcium assay kit (Molecular Devices). Excitation and emission wavelengths were set at 490 nm and 525 nm, respectively."}, "Plutella xylostella": {"system": "Plutella xylostella", "conditions": "cited from earlier work; for Resistance compared to susceptible strains: larvae collected from the Philippines and Thailand in 2012"}, "P. xylostella WT RyR [3]": {"molecular_target": "T2, P. xylostella WT RyR (Plutella xylostella, UniProt K7W8M2)", "test": "Calcium fluorescence (Fluo8, FLIPR Tetra), Sf9 cells stably expressing wild-type RyR (Sf9-wtRyR)", "type": "cell-based", "conditions": "for Intracellular calcium signal over time (Fluo8): caffeine 30 mM, flubendiamide-sulfoxide 1 μM, chlorantraniliprole 1 μM", "experimental": "Single Sf9 cell clones stably expressing either the wild-type (Sf9-wtRyR) or the G4946E (Sf9-mRyR) RyR channel were isolated after a few cycles of clonal selection. […] This may be explained by compensatory calcium re-uptake mechanisms of the sarco-/endoplasmic reticulum, in particular the Ca^2+-ATPase (SERCA)[32][33].\nFluorescence of the calcium-Fluo8 complex was measured as a function of time.\nMeasurements of the integrated calcium signals as a function of the diamide concentration, gave characteristic dose-response curves, from which apparent EC50 concentrations for flubendiamide-sulfoxide and chlorantraniliprole were calculated (Fig. 6). These values represent the effector concentration causing half-maximal integrated calcium signals in the cells. […] It should be noted that the EC50 values are not only determined by the compound’s affinities to the RyR, but also by their availability at the intracellular target site as influenced by their physico-chemical properties.\nas §1, §2, §3"}, "[4]": {"system": "P. xylostella ROTH WT RyR", "test": "Fura-2 AM calcium release, Sf9 cells transiently expressing ROTH WT RyR", "type": "cell-based, Plutella xylostella", "conditions": "72 h post transfection, caffeine 30 mM, flubendiamide sulfoxide 30 μM, flubendiamide 10 μM", "experimental": "(§4) Figure 3 Fluorescence ratios measured over time in a single calcium release experiment using Fura-2 AM in Sf9 cells transiently expressing (a) WT construct and (b) the G4946E variant 72 h post transfection.\n(§5) Sf9 cells (Life technologies) were maintained in Sf-900 II SFM (Gibco-life technologies) serum free media without antibiotic in 30 ml suspension cultures (shaking at 115 rpm) at a constant temperature of 27 °C. Cells used for transfection were seeded into 60 mm cell culture dishes (Corning®), at 2 × 10[6] cells per dish in 3 ml of Sf-900 II SFM, and left to attach for 1 h. Cells were transfected using 3 μg of plasmid DNA, 15 μl Cellfectin II reagent (Life technologies) and 5 μl PLUS™ enhancer reagent (Life technologies) per dish, following the manufacturer’s protocol.\n(§6) Fura 2-AM dye (Life technologies, CA, USA) was used for monitoring calcium release in Sf9 cells transfected with the P. xylostella RyR. Approximately 2.5 × 10^5 of un-transfected SF9 cells were allowed to attach to Poly-L-lysine coated coverslips (Sigma, MA, USA) for 1 h and then transfected using Cellfectin™ II. 24 h, 48 h, 72 h and 96 h post transfection the cells were loaded with […] of Fura 2-AM calcium sensitive dye. Cells were left to incubate at 27 °C for 45–60 minutes, followed by 3 washes with 500 μl of fresh un-supplemented Sf-900 II medium. […]"}, "P. xylostella G4946E RyR [5]": {"molecular_target": "T1, P. xylostella G4946E RyR", "type": "cell-based", "conditions": "72 h post transfection, caffeine 30 mM, flubendiamide 10 μM", "experimental": "as §4, §5, §6"}, "[6]": {"molecular_target": "rabbit skeletal muscle RyR", "set-up": "method as in PMID 11220363", "conditions": "native preparation of rabbit skeletal muscle RyR; cited from earlier work"}, "P. xylostella G4946E RyR [7]": {"molecular_target": "T1, P. xylostella G4946E RyR", "test": "[3H] ryanodine binding, membranes of Sf9 cells transiently expressing G4946E RyR", "experimental": "(§7) Apparent differences in Kd and Bmax with those reported in other studies could likely be explained by the different experimental conditions.\n(§8) Figure 4 Tritium labelled ryanodine binding from Sf9 membrane preparations expressing P. xylostella WT and G4946E RyRs.\n(§9) For membrane preparation, transfected cells were harvested 48 h post transfection using phosphate buffered saline (PBS), the cells counted and then re-suspended in a hypo-osmotic buffer (20 mM Tris, 1 mM EDTA pH 7.4) at a concentration of 2 × 10[6] cells per ml. The cells were then homogenised and centrifuged at 1,500 g for 15 min at 4 °C to remove cell debris. The supernatant was removed, centrifuged at 100,000 g for 1 h at 4 °C and the membrane pellet re-suspended in a 0.4 M sucrose, 20 mM HEPES solution (20 μl per 2 × 10[6] cells). Protein concentration was determined using Bradford reagent (Bio-Rad) following the manufacturer’s instructions, against Bovine Serum Albumin (BSA) standards.\n(§10) Binding reactions were set up in a 96 well flat bottom microtiter plate in a total volume of 250 μl per well. […]"}, "H. virescens RyR": {"molecular_target": "H. virescens RyR", "conditions": "cited from earlier work"}, "P. xylostella WT RyR [8]": {"molecular_target": "T2, P. xylostella WT RyR", "test": "[3H] ryanodine binding, membranes of Sf9 cells transiently expressing ROTH WT RyR", "experimental": "as §7, §8, §9, §10"}},
  "note": "Read-outs that look alike come from different tables or passages of the source.",
  "data": [
    {"smiles": "CNC(=O)c1cc(Cl)cc(C)c1NC(=O)c1cc(Br)nn1-c1ncccc1Cl", "note": "[chlorantraniliprole]", "values": [
      {"measurement": "Resistance level", "setting": "Tuta absoluta", "value": "up to 2,414 fold"},
      {"measurement": "Resistance ratio of EC50 for ryanodine binding stimulation", "setting": "[1]", "value": 159, "unit": "fold"},
      {"measurement": "Resistance ratio", "setting": "Adoxophyes honmai", "value": 77.2, "unit": "fold"},
      {"measurement": "EC50", "setting": "P. xylostella G4946E RyR [2]", "value": 3720, "unit": "nM"},
      {"measurement": "Loss of effect on the RyR channel with G4946E substitution versus WT", "setting": "P. xylostella G4946E RyR [2]; G4946E versus WT, from EC50 values", "value": "roughly two orders of magnitude"},
      {"measurement": "Resistance", "setting": "Plutella xylostella; field populations from China with G4946E", "value": "303–658 fold"},
      {"measurement": "Resistance compared to susceptible strains", "setting": "Plutella xylostella", "value": "over 200 fold"},
      {"measurement": "EC50", "setting": "P. xylostella WT RyR [3]", "value": 17, "unit": "nM"},
      {"measurement": "Intracellular calcium signal over time (Fluo8)", "setting": "P. xylostella WT RyR [3]; Sf9-wtRyR", "value": "increased intracellular calcium concentrations that persisted"}
    ]},
    {"smiles": "Cn1c(=O)c2c(ncn2C)n(C)c1=O", "note": "[caffeine]", "values": [
      {"measurement": "Intracellular calcium signal over time (Fluo8)", "setting": "P. xylostella WT RyR [3]; Sf9-wtRyR", "value": "increased rapidly to the maximum in less than one minute after application and then decreased to baseline levels"}
    ]},
    {"smiles": "Cc1cc(C(F)(C(F)(F)F)C(F)(F)F)ccc1NC(=O)c1cccc(I)c1C(=O)NC(C)(C)C[S+](C)[O-]", "note": "(centres unmarked) [flubendiamide sulfoxide]", "values": [
      {"measurement": "Calcium release response (Fura-2 fluorescence ratio)", "setting": "[4]", "value": "reversible activation of the calcium release"},
      {"measurement": "EC50", "setting": "P. xylostella G4946E RyR [2]; Sf9-mRyR, stable G4946E RyR, Fluo8, ± standard error printed, read-out: EC50 (half-maximal integrated calcium signal)", "value": "> 20000", "unit": "nM"},
      {"measurement": "EC50", "setting": "P. xylostella WT RyR [3]; Sf9-wtRyR, stable WT RyR, Fluo8, ± standard error printed, read-out: EC50 (half-maximal integrated calcium signal)", "value": 245, "unit": "nM"},
      {"measurement": "Intracellular calcium signal over time (Fluo8)", "setting": "P. xylostella WT RyR [3]; Sf9-wtRyR", "value": "increased intracellular calcium concentrations that persisted"},
      {"measurement": "Calcium release response (Fura-2 fluorescence ratio)", "setting": "P. xylostella G4946E RyR [5]", "value": "failed to induce any release of calcium"}
    ]},
    {"smiles": "Cc1cc(C(F)(C(F)(F)F)C(F)(F)F)ccc1NC(=O)c1cccc(I)c1C(=O)NC(C)(C)CS(C)(=O)=O", "note": "[flubendiamide]", "values": [
      {"measurement": "Calcium release response (Fura-2 fluorescence ratio)", "setting": "[4]", "value": "permanently increased Ca^2+ levels"},
      {"measurement": "Resistance level", "setting": "Tuta absoluta", "value": "≤ 1,742 fold"},
      {"measurement": "Resistance ratio of EC50 for ryanodine binding stimulation", "setting": "[1]", "value": "> 450", "unit": "fold"},
      {"measurement": "Resistance ratio", "setting": "Adoxophyes honmai", "value": 105, "unit": "fold"},
      {"measurement": "Resistance compared to susceptible strains", "setting": "Plutella xylostella", "value": "over 200 fold"},
      {"measurement": "Calcium release response (Fura-2 fluorescence ratio)", "setting": "P. xylostella G4946E RyR [5]", "value": "did not show any calcium release"}
    ]},
    {"smiles": "CC(C)[C@@]1(O)[C@@H](OC(=O)c2ccc[nH]2)[C@@]2(O)[C@@]3(C)C[C@]4(O)O[C@@]5([C@H](O)[C@@H](C)CC[C@]35O)[C@@]2(O)[C@@]14C", "note": "[ryanodine]", "values": [
      {"measurement": "Kd", "setting": "[6]", "value": "2.04 ± 0.12", "unit": "nM"},
      {"measurement": "Kd", "setting": "P. xylostella G4946E RyR [7]", "value": "14.7 ± 4.18", "unit": "nM"},
      {"measurement": "Kd", "setting": "H. virescens RyR; H. virescens native membrane preparations, different study", "value": "13.9 ± 3.8", "unit": "nM"},
      {"measurement": "Kd", "setting": "H. virescens RyR; native preparation of H. virescens RyR", "value": "3.82 ± 0.39", "unit": "nM"},
      {"measurement": "Kd", "setting": "P. xylostella WT RyR [8]", "value": "12.9 ± 4.5", "unit": "nM"}
    ]}
  ]
}
